From US9598423B2 (BRISTOL-MYERS SQUIBB COMPANY, priority 2013, dated 2017)
Blank lines part the entries; values can stand above or below the compound they belong to.

Tests used:
CK1ε = CK1ε (Homo sapiens (Human), UniProt P49674); assay: CK1ε kinase assay (Caliper LABCHIP electrophoretic separation of fluoresceinated peptide substrate and product); format: biochemical; conditions: 200 pM CK1ε, 50 μM ATP, 1.5 μM peptide substrate, 22 hours at room temperature; read-out: CK1ε (IC50)
In short: (§1)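 Compounds, taken from 10 mM DMSO stocks, are titrated at eleven concentrations. Kinase reactions proceed for 22 hours at room temperature and are quenched with EDTA. Substrate and product are resolved electrophoretically, and IC50 values are fitted by non-linear regression.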

CK1δ = CK1δ (Homo sapiens (Human), UniProt P48730); assay: CK1δ kinase assay (Caliper LABCHIP electrophoretic separation of fluoresceinated peptide substrate and product); format: biochemical; conditions: 200 pM CK1δ, 50 μM ATP, 1.5 μM peptide substrate, 22 hours at room temperature; read-out: CK1δ (IC50)
In short: as §1

Chain of CK1δ (P48730 whole entry): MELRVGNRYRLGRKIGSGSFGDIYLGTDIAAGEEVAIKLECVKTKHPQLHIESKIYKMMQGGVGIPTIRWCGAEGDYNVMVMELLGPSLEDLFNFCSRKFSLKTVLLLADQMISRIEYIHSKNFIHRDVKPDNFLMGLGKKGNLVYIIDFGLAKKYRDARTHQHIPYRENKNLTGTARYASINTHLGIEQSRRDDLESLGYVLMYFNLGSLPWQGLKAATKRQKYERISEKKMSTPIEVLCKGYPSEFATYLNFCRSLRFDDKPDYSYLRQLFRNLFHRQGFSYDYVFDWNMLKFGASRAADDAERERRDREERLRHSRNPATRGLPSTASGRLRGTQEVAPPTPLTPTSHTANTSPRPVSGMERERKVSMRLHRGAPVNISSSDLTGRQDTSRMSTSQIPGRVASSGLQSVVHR
Chain of CK1ε (P49674 whole entry): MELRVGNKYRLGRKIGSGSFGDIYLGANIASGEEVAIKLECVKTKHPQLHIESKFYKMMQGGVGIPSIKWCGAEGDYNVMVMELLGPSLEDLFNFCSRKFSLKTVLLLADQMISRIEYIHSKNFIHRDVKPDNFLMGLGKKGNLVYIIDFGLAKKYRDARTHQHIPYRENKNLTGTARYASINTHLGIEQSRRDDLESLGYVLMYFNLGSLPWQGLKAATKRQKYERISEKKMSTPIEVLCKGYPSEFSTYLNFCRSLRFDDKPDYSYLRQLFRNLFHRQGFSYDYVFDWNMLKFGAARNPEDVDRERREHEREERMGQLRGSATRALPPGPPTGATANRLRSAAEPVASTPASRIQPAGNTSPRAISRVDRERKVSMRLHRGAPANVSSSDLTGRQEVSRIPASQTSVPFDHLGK

Compound: NC(=O)c1ccc(NC(=O)N2CCn3nc(-c4ccc(F)c(Cl)c4)c(C(N)=O)c3C2)cc1 [Compound 180, N^5-(4-Carbamoylphenyl)-2-(3-chloro-4-fluorophenyl)-6,7-dihydropyrazolo[1,5-a] pyrazine-3,5(4H)-dicarboxamide]
- IC50 (CK1ε): 0.01 to 10 nM
- IC50 (CK1δ): 0.01 to 10 nM

Compound: NC(=O)c1c(-c2ccc(F)c(Cl)c2)nn2c1CN(C(=O)Nc1ccc(OC(F)(F)F)cc1)CC2 [Compound 181, 2-(3-Chloro-4-fluorophenyl)-N^5-(4-(trifluoromethoxy)phenyl)-6,7-dihydropyrazolo[1,5-a] pyrazine-3,5(4H)-dicarboxamide]
- IC50 (CK1ε): 0.01 to 10 nM
- IC50 (CK1δ): 0.01 to 10 nM

Compound: NC(=O)c1c(-c2ccc(F)c(Cl)c2)nn2c1CN(C(=O)Nc1ccc(Cl)c(Cl)c1)CC2 [Compound 182, 2-(3-Chloro-4-fluorophenyl)-N^5-(3,4-dichlorophenyl)-6,7-dihydropyrazolo[1,5-a] pyrazine-3,5(4H)-dicarboxamide]
- IC50 (CK1ε): 0.01 to 10 nM
- IC50 (CK1δ): 0.01 to 10 nM

Compound: NC(=O)c1c(-c2ccc(F)c(Cl)c2)nn2c1CN(C(=O)Nc1ccc(F)c(F)c1)CC2 [Compound 183, 2-(3-Chloro-4-fluorophenyl)-N^5-(3,4-difluorophenyl)-6,7-dihydropyrazolo[1,5-a] pyrazine-3,5(4H)-dicarboxamide]
- IC50 (CK1ε): 0.01 to 10 nM
- IC50 (CK1δ): 0.01 to 10 nM

Compound: NC(=O)c1c(-c2ccc(F)c(Cl)c2)nn2c1CN(C(=O)Nc1cccc(OC(F)(F)F)c1)CC2 [Compound 184, 2-(3-Chloro-4-fluorophenyl)-N^5-(3-(trifluoromethoxy)phenyl)-6,7-dihydropyrazolo[1,5-a] pyrazine-3,5(4H)-dicarboxamide]
- IC50 (CK1ε): 0.01 to 10 nM
- IC50 (CK1δ): 0.01 to 10 nM

Compound: NC(=O)c1c(-c2ccc(F)c(Cl)c2)nn2c1CN(C(=O)Nc1ccc(F)c(Cl)c1)CC2 [Compound 185, N^5,2-Bis(3-chloro-4-fluorophenyl)-6,7-dihydropyrazolo[1,5-a] pyrazine-3,5(4H)-dicarboxamide]
- IC50 (CK1ε): 0.01 to 10 nM
- IC50 (CK1δ): 0.01 to 10 nM

Compound: NC(=O)c1c(-c2ccc(F)c(Cl)c2)nn2c1CN(C(=O)Nc1cccc(F)c1)CC2 [Compound 186, 2-(3-Chloro-4-fluorophenyl)-N^5-(3-fluorophenyl)-6,7-dihydropyrazolo[1,5-a] pyrazine-3,5(4H)-dicarboxamide]
- IC50 (CK1ε): 0.01 to 10 nM
- IC50 (CK1δ): 0.01 to 10 nM

Compound: NC(=O)c1c(-c2ccc(F)c(Cl)c2)nn2c1CN(C(=O)Nc1cc(F)c(F)c(F)c1)CC2 [Compound 187, 2-(3-Chloro-4-fluorophenyl)-N^5-(3,4,5-trifluorophenyl)-6,7-dihydropyrazolo[1,5-a] pyrazine-3,5(4H)-dicarboxamide]
- IC50 (CK1ε): 0.01 to 10 nM
- IC50 (CK1δ): 0.01 to 10 nM

Compound: NC(=O)c1c(-c2ccc(F)c(Cl)c2)nn2c1CN(C(=O)Nc1cc(C(F)(F)F)cc(C(F)(F)F)c1)CC2 [Compound 188, N^5-(3,5-Bis(trifluoromethyl)phenyl)-2-(3-chloro-4-fluorophenyl)-6,7-dihydropyrazolo[1,5-a] pyrazine-3,5(4H)-dicarboxamide]
- IC50 (CK1ε): 0.01 to 10 nM
- IC50 (CK1δ): 0.01 to 10 nM

Compound: COc1ccc(NC(=O)N2CCn3nc(-c4ccc(F)c(Cl)c4)c(C(N)=O)c3C2)cc1C(F)(F)F [Compound 189, 2-(3-Chloro-4-fluorophenyl)-N^5-(4-methoxy-3-(trifluoromethyl)phenyl)-6,7-dihydropyrazolo[1,5-a]pyrazine-3,5(4H)-dicarboxamide]
- IC50 (CK1ε): 0.01 to 10 nM
- IC50 (CK1δ): 0.01 to 10 nM

Compound: NC(=O)c1c(-c2ccc(F)c(Cl)c2)nn2c1CN(C(=O)Nc1ccc(F)c(C(F)(F)F)c1)CC2 [Compound 190, 2-(3-Chloro-4-fluorophenyl)-N^5-(4-fluoro-3-(trifluoromethyl)phenyl)-6,7-dihydropyrazolo[1,5-a] pyrazine-3,5(4H)-dicarboxamide]
- IC50 (CK1ε): 0.01 to 10 nM
- IC50 (CK1δ): 0.01 to 10 nM

Compound: NC(=O)c1c(-c2ccc(F)c(Cl)c2)nn2c1CN(C(=O)Nc1cccc(F)c1F)CC2 [Compound 191, 2-(3-Chloro-4-fluorophenyl)-N^5-(2,3-difluorophenyl)-6,7-dihydropyrazolo[1,5-a] pyrazine-3,5(4H)-dicarboxamide]
- IC50 (CK1ε): 0.01 to 10 nM
- IC50 (CK1δ): 0.01 to 10 nM

Compound: N#Cc1ccc(NC(=O)N2CCn3nc(-c4ccc(F)c(Cl)c4)c(C(N)=O)c3C2)nc1 [Compound 193, 2-(3-Chloro-4-fluorophenyl)-N^5-(5-cyanopyridin-2-yl)-6,7-dihydropyrazolo[1,5-a] pyrazine-3,5(4H)-dicarboxamide]
- IC50 (CK1ε): 0.01 to 10 nM
- IC50 (CK1δ): 0.01 to 10 nM

Compound: CS(=O)(=O)c1ccc(NC(=O)N2CCn3nc(-c4ccc(F)c(Cl)c4)c(C(N)=O)c3C2)nc1 [Compound 195, 2-(3-Chloro-4-fluorophenyl)-N^5-(5-(methylsulfonyl)pyridin-2-yl)-6,7-dihydropyrazolo[1,5-a] pyrazine-3,5(4H)-dicarboxamide]
- IC50 (CK1ε): 0.01 to 10 nM
- IC50 (CK1δ): 0.01 to 10 nM

Compound: N#Cc1cccc(NC(=O)N2CCn3nc(-c4ccc(F)c(Cl)c4)c(C(N)=O)c3C2)c1 [Compound 200, 2-(3-Chloro-4-fluorophenyl)-N^5-(3-cyanophenyl)-6,7-dihydropyrazolo[1,5-a] pyrazine-3,5(4H)-dicarboxamide]
- IC50 (CK1ε): 0.01 to 10 nM
- IC50 (CK1δ): 0.01 to 10 nM

Compound: N#Cc1ccc(NC(=O)N2CCn3nc(-c4ccc(F)c(Cl)c4)c(C(N)=O)c3C2)cc1Cl [Compound 203, N^5-(3-Chloro-4-cyanophenyl)-2-(3-chloro-4-fluorophenyl)-6,7-dihydropyrazolo[1,5-a]pyrazine-3,5(4H)-dicarboxamide]
- IC50 (CK1ε): 0.01 to 10 nM
- IC50 (CK1δ): 0.01 to 10 nM

Compound: N#Cc1ccc(NC(=O)N2CCn3nc(-c4ccc(F)c(Cl)c4)c(C(N)=O)c3C2)cc1C(F)(F)F [Compound 204, 2-(3-Chloro-4-fluorophenyl)-N^5-(4-cyano-3-(trifluoromethyl)phenyl)-6,7-dihydropyrazolo[1,5-a] pyrazine-3,5(4H)-dicarboxamide]
- IC50 (CK1ε): 0.01 to 10 nM
- IC50 (CK1δ): 0.01 to 10 nM

Compound: NC(=O)c1c(-c2ccc(Cl)c(Cl)c2)nn2c1CN(C(=O)Nc1cc(Cl)cc(Cl)c1)CC2 [Compound 206]
- IC50 (CK1ε): 0.01 to 10 nM
- IC50 (CK1δ): 0.01 to 10 nM

The next lines start with the values.

- IC50 (CK1ε): 0.01 to 10 nM
- IC50 (CK1δ): 0.01 to 10 nM
Compound: COc1cc(Cl)cc(-c2nn3c(c2C(N)=O)CN(C(=O)NC(C)(C)C)CC3)c1 [Compound 152, N^5-(tert-Butyl)-2-(3-chloro-5-methoxyphenyl)-6,7-dihydropyrazolo[1,5-a]pyrazine-3,5(4H)-dicarboxamide]

- IC50 (CK1ε): 0.01 to 10 nM
- IC50 (CK1δ): 0.01 to 10 nM
Compound: NC(=O)c1c(-c2cccc(Cl)c2)nn2c1CN(C(=O)Nc1ccc(F)c(F)c1)CC2 [Compound 156, 2-(3-Chlorophenyl)-N^5-(3,4-difluorophenyl)-6,7-dihydropyrazolo[1,5-a]pyrazine-3,5(4H)-dicarboxamide]

- IC50 (CK1ε): 0.01 to 10 nM
- IC50 (CK1δ): 0.01 to 10 nM
Compound: NC(=O)c1c(-c2cccc(Cl)c2)nn2c1CN(C(=O)Nc1ccc(F)cc1)CC2 [Compound 157, 2-(3-Chlorophenyl)-N^5-(4-fluorophenyl)-6,7-dihydropyrazolo[1,5-a]pyrazine-3,5(4H)-dicarboxamide]

- IC50 (CK1ε): 0.01 to 10 nM
- IC50 (CK1δ): 0.01 to 10 nM
Compound: N#Cc1cccc(NC(=O)N2CCn3nc(-c4cccc(Cl)c4)c(C(N)=O)c3C2)c1 [Compound 161, 2-(3-Chlorophenyl)-N^5-(3-cyanophenyl)-6,7-dihydropyrazolo[1,5-a] pyrazine-3,5(4H)-dicarboxamide]

- IC50 (CK1ε): 0.01 to 10 nM
- IC50 (CK1δ): 0.01 to 10 nM
Compound: NC(=O)c1c(-c2cccc(Cl)c2)nn2c1CN(C(=O)Nc1ccc(Cl)c(Cl)c1)CC2 [Compound 164, 2-(3-Chlorophenyl)-N^5-(3,4-dichlorophenyl)-6,7-dihydropyrazolo[1,5-a] pyrazine-3,5(4H)-dicarboxamide]

- IC50 (CK1ε): 0.01 to 10 nM
- IC50 (CK1δ): 0.01 to 10 nM
Compound: NC(=O)c1c(-c2cccc(Cl)c2)nn2c1CN(C(=O)Nc1cccc(F)c1)CC2 [Compound 167, 2-(3-Chlorophenyl)-N^5-(3-fluorophenyl)-6,7-dihydropyrazolo[1,5-a] pyrazine-3,5(4H)-dicarboxamide]

- IC50 (CK1ε): 0.01 to 10 nM
- IC50 (CK1δ): 0.01 to 10 nM
Compound: NC(=O)c1c(-c2cccc(Cl)c2)nn2c1CN(C(=O)Nc1cc(F)cc(F)c1)CC2 [Compound 169, 2-(3-Chlorophenyl)-N^5-(3,5-difluorophenyl)-6,7-dihydropyrazolo[1,5-a] pyrazine-3,5(4H)-dicarboxamide]

- IC50 (CK1ε): 0.01 to 10 nM
- IC50 (CK1δ): 0.01 to 10 nM
Compound: COc1cccc(NC(=O)N2CCn3nc(-c4cccc(Cl)c4)c(C(N)=O)c3C2)c1 [Compound 170, 2-(3-Chlorophenyl)-N^5-(3-methoxyphenyl)-6,7-dihydropyrazolo[1,5-a] pyrazine-3,5(4H)-dicarboxamide]

- IC50 (CK1ε): 0.01 to 10 nM
- IC50 (CK1δ): 0.01 to 10 nM
Compound: NC(=O)c1c(-c2cccc(Cl)c2)nn2c1CN(C(=O)Nc1ccc(Cl)nc1)CC2 [Compound 171, 2-(3-Chlorophenyl)-N^5-(6-chloropyridin-3-yl)-6,7-dihydropyrazolo[1,5-a] pyrazine-3,5(4H)-dicarboxamide]

- IC50 (CK1ε): 0.01 to 10 nM
- IC50 (CK1δ): 0.01 to 10 nM
Compound: N#Cc1ccc(NC(=O)N2CCn3nc(-c4ccc(F)c(Cl)c4)c(C(N)=O)c3C2)cc1 [Compound 172]

- IC50 (CK1ε): 0.01 to 10 nM
- IC50 (CK1δ): 0.01 to 10 nM
Compound: NC(=O)c1c(-c2ccc(F)c(Cl)c2)nn2c1CN(C(=O)Nc1cc(Cl)cc(Cl)c1)CC2 [Compound 173, 2-(3-Chloro-4-fluorophenyl)-N^5-(3,5-dichlorophenyl)-6,7-dihydropyrazolo[1,5-a] pyrazine-3,5(4H)-dicarboxamide]

- IC50 (CK1ε): 0.01 to 10 nM
- IC50 (CK1δ): 0.01 to 10 nM
Compound: Cc1ccc(NC(=O)N2CCn3nc(-c4ccc(F)c(Cl)c4)c(C(N)=O)c3C2)cc1C [Compound 175, 2-(3-Chloro-4-fluorophenyl)-N^5-(3,4-dimethylphenyl)-6,7-dihydropyrazolo[1,5-a] pyrazine-3,5(4H)-dicarboxamide]

- IC50 (CK1ε): 0.01 to 10 nM
- IC50 (CK1δ): 0.01 to 10 nM
Compound: NC(=O)c1c(-c2ccc(F)c(Cl)c2)nn2c1CN(C(=O)Nc1ccc(C(F)(F)F)c(Cl)c1)CC2 [Compound 176, N^5-(3-Chloro-4-(trifluoromethyl)phenyl)-2-(3-chloro-4-fluorophenyl)-6,7-dihydropyrazolo[1,5-a] pyrazine-3,5(4H)-dicarboxamide]
